Counter-ions that a name gives are not always drawn. Like-named read-outs stand apart in the source and are kept apart here.
Tests used:
NLRP3 inflammasome = assay: IL-1β secretion assay (LPS-primed, nigericin-activated THP-1 cells, MSD readout); type: cell-based; details: read-out: IL1b IC50
In short: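 THP-1 monocytes primed with LPS (10 ng/mL, 3 h, 37 °C), then co-incubated 2 h with serially diluted compound and nigericin 10 μM (final). Supernatant IL-1β measured by MSD electrochemiluminescence immunoassay. IC50 derived from four-parameter logistic fit of % inhibition versus concentration.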

[1] = Brain over plasma ratio evaluation; type: in vivo; details: mouse, brain and plasma, iv; female C57B16 mice, single i.v. 1 mg/kg, 0.25 h post dosing, geometric mean of 3 animals
Experimental: Brain Over Plasma Ratio Evaluation
A solution of 3 mg of compound in a generic vehicle (Glycofurol/solutol/Dextrose 5%: 10%/5%/85%, adjusted at pH3), final concentration 0.2 mg/ml, are stirred overnight at ambient temperature whilst protected from light.
Female C57B16 mice between the ages of 8-12 weeks are administered with the prepared solution, as single intravenous dose of 1 mg/kg into the tail vein with a dose volume of 5 ml/kg. A total of 3 animal replicates are evaluated for each compound utilizing a terminal sampling approach. After 0.25 h post dosing, under anesthesia, 400 μL of blood and the whole brain are collected. Blood sample is centrifuged at 4° C. for 10 minutes at 1500 g; brain is weighted, homogenized using deionized water to give a final ratio of (1/2:w/v). Plasma and brain concentrations are measured by an exploratory LC-MS/MS method.
Individual brain over plasma concentration ratio is calculated for each animal, and geometric mean value is reported.

TNF-α secretion = TNF-α secretion assay (PMA-differentiated THP-1 cells, LPS-triggered, MSD readout); type: cell-based; details: LPS 24 h; for inhibition at 3 µM / inhibition at 10 µM: Homo sapiens
Experimental: Monocytic THP-1 cells (DSMZ) were maintained in RPMI media (RPMI 1640 Medium (1×) +10% FBS, biowest S181H). Cells were then differentiated at 160,000 cells per well in 96-well flat bottom cell culture plates with RPMI+0.1% Bovine Serum Albumin solution and 0.5 μM phorbol 12-myristate 13-acetate (PMA; Sigma, ref:P8139) overnight at 37° C. Experimental compounds were prepared and added as described above. TNF-α secretion was triggered by the addition of 0.5 μg/mL LPS (invivoGen, tlrl-3pelps) and cells were incubated for 24 h. 2.5 μL supernatant was removed, and TNF-α levels were monitored using an MSD assay (mesoscale, K15049) according to manufacturers' instructions.
IC50 values were calculated from the plot of percentage of inhibition versus the inhibitor concentration by a logistics fit according to: y=A2+(A1−A2)/(1+(x/IC50)^p) where y is the %-inhibition at the inhibitor concentration, x. A1 is the lowest inhibition value, i.e., 0%, and A2 the maximum inhibition value, i.e., 100%. The exponent, p, is the Hill coefficient. The curve fitting was conducted with an internally developed software.

[2] = Homo sapiens, THP-1, LPS-primed

SMILES | IC50 (NLRP3 inflammasome; [2]) [µM] | Kp at 0.25 h [1] | IC50 (NLRP3 inflammasome; Homo sapiens, LPS-primed) [µM] | inhibition at 3 µM (TNF-α secretion; compound at 3 μM) [%] | inhibition at 10 µM (TNF-α secretion; compound at 10 μM) [%] | IC50 (NLRP3 inflammasome; LPS-primed) [µM] | TNF-a inhibition @ 3 μM (TNF-α secretion; compound at 3 μM) | TNF-a inhibition @ 10 μM (TNF-α secretion; compound at 10 μM)
CC(C)c1nn(CC(=O)N[C@@H]2CCCN(C3CC3)C2)c(=O)c2cc3cc(Cl)sc3n12.O=C(O)C(F)(F)F [Example 6, (R)-2-(2-chloro-8-isopropyl-5-oxothieno[3′,2′:4,5]pyrrolo[1,2-d][1,2,4]triazin-6(5H)-yl)-N-(1-cyclopropylpiperidin-3-yl)acetamide 2,2,2-trifluoroacetate] | 0.158 | 7.58 | – | – | – | – | – | –
CC(C)c1nn(CC(=O)N[C@@H]2CCCN(CC3CC(F)(F)C3)C2)c(=O)c2cc3ccsc3n12.O=CO [Example 43, (R)—N-(1-((3,3-difluorocyclobutyl)methyl)piperidin-3-yl)-2-(8-isopropyl-5-oxothieno [3′,2′:4,5]pyrrolo[1,2-d][1,2,4]triazin-6(5H)-yl)acetamide formate] | 0.133 | 0.42 | – | – | – | – | – | –
C=O.CC(C)c1nn(CC(=O)N[C@@H]2CCCN(CC3CC3(F)F)C2)c(=O)c2cc3ccsc3n12 (stereo partly drawn) [Example 18, N-((3R)-1-((2,2-difluorocyclopropyl)methyl)piperidin-3-yl)-2-(8-isopropyl-5-oxothieno [3′,2′:4,5]pyrrolo[1,2-d][1,2,4]triazin-6(5H)-yl)acetamide compound with formaldehyde] | – | 1.56 | 0.236 | 9.6 | 21.6 | – | – | –
CC(C)c1nn(CC(=O)N[C@@H]2CCCN(C3CCC3)C2)c(=O)c2cc3ccsc3n12.O=CO [Example 11, (R)—N-(1-cyclobutylpiperidin-3-yl)-2-(8-isopropyl-5-oxothieno[3′,2′:4,5]pyrrolo[1,2-d][1,2,4]triazin-6(5H)-yl)acetamide formate] | 0.045 | 3.2 | – | 20.1 | -12.7 | – | – | –
CC(C)c1nn(CC(=O)NC2CCCN(C(C)(C)C)C2)c(=O)c2cc3cc(Br)sc3n12 (centres unmarked) [Example 59, 2-(4-bromo-12-isopropyl-9-oxo-3-thia-1,10,11-triazatricyclo[6.4.0.02,6]dodeca-2(6),4,7,11-tetraen-10-yl)-N-(1-tert-butyl-3-piperidyl)acetamide] | 0.034 | 1.15 | – | – | – | – | – | –
CC(C)c1nn(CC(=O)N[C@@H]2CCCN(CCCF)C2)c(=O)c2cc3ccsc3n12.O=CO [Example 41, (R)—N-(1-(3-fluoropropyl)piperidin-3-yl)-2-(8-isopropyl-5-oxothieno[3′,2′:4,5]pyrrolo[1,2-d][1,2,4]triazin-6(5H)-yl)acetamide formate] | 0.037 | 1.56 | – | – | – | – | – | –
CC(C)c1nn(CC(=O)N[C@@H]2CCCN(CC3CC3)C2)c(=O)c2cc3ccsc3n12 [Example 28, (R)—N-(1-(cyclopropylmethyl)piperidin-3-yl)-2-(8-isopropyl-5-oxothieno[3′,2′:4,5]pyrrolo [1,2-d][1,2,4]triazin-6(5H)-yl)acetamide formate] | 0.775 | – | – | 34.4 | -45.5 | – | – | –
CC(C)c1nn(CC(=O)Nc2cncs2)c(=O)c2cc3ccsc3n12 [Example 2, 2-(8-isopropyl-5-oxothieno[3′,2′:4,5]pyrrolo[1,2-d][1,2,4]triazin-6(5H)-yl)-N-(thiazol-5-yl) acetamide] | – | – | – | – | – | 0.577 | 3.3 | −51.5
CN1CCC[C@@H](NC(=O)Cn2nc(C3CC3)n3c(cc4ccsc43)c2=O)C1 [Example 24, (R)-2-(8-cyclopropyl-5-oxothieno[3′,2′:4,5]pyrrolo[1,2-d][1,2,4]triazin-6(5H)-yl)-N-(1-methylpiperidin-3-yl)acetamide formate] | 2.89 | – | – | 12 | 15.5 | – | – | –
CC(C)c1nn(CC(=O)N[C@@H]2CCCN(C3CCC3)C2)c(=O)c2cc3cc(Cl)sc3n12.O=CO [Example 10, (R)-2-(2-chloro-8-isopropyl-5-oxothieno[3′,2′:4,5]pyrrolo[1,2-d][1,2,4]triazin-6(5H)-yl)-N-(1-cyclobutylpiperidin-3-yl)acetamide formate] | 0.101 | 5.84 | – | 3 | -11.9 | – | – | –
CC(C)c1nn(CC(=O)N[C@@H]2CCCN(CC3CCCC3)C2)c(=O)c2cc3ccsc3n12 [Example 17, (R)—N-(1-(cyclopentylmethyl)piperidin-3-yl)-2-(8-isopropyl-5-oxothieno[3′,2′:4,5]pyrrolo [1,2-d][1,2,4]triazin-6(5H)-yl)acetamide] | 0.3 | – | – | 11.2 | 31.4 | – | – | –
CC(C)c1nn(CC(=O)N[C@@H]2CCCN(CC(C)(C)O)C2)c(=O)c2cc3ccsc3n12 [Example 23, (R)—N-(1-(2-hydroxy-2-methylpropyl)piperidin-3-yl)-2-(8-isopropyl-5-oxothieno[3′,2′:4,5]pyrrolo[1,2-d][1,2,4]triazin-6(5H)-yl)acetamide formate] | 0.311 | – | – | 1.8 | 3.3 | – | – | –

From patent US20250129091A1, “THIENOPYRROLOTRIAZINE COMPOUNDS, THEIR PREPARATION AND THEIR THERAPEUTIC USE” (Sanofi, priority 2022, published 2025)
